Laboratory results: patent publication US4097597A, “Dibenzo[b,e][1,4]diazepines” (Abbott Laboratories, priority 1977, dated 1978)

Columns and labels:
[1] = tested on: brain level of homovanillic acid (HVA); test: Effect of Drug Compounds on Brain Level of Homovanillic Acid (HVA); type: in vivo, male Long Evans rats; conditions: ratio to HVA level in control group (1.0); rat brain minus cerebella, 0.15 mmoles/kg i.p. standard dose, 2 or 3 hours; only ratios greater than 1.6 considered of practical significance
Procedure: In testing for the effectiveness of the present drug compounds on the brain level of homovanillic acid (HVA), the drugs were administered intraperitoneally to male Long Evans rats (Simonsen) usually as aqueous solutions but in certain cases as suspensions in 0.5% methocel in 0.9% saline. The standard testing dose was 0.15 mmoles/kg. body weight. The test and control groups consisted of 3-5 and 5 animals, respectively. The analyses were performed on brains (minus cerebella) removed 2 or 3 hours later. In the analysis, standard extraction and fluorimetric methods were used.
In the results, the level of brain HVA in each test group is expressed as a ratio to the level of HVA in an accompanying control group that was injected with either a 0.9% saline or a 0.5% solution of methocel. Even though ratios of […] 1.3 usually have statistical significance, only ratios greater than 1.6 are considered to be of practical significance for the pharmacological classification of drugs.

[2] = tested on: Methamphetamine induced hyperactivity; test: Antagonism of Methamphetamine induced hyperactivity in rats; type: in vivo, Male Long-Evans black hooded rats; parameters: key: (+): potentiation of Methamphetamine; (-): antagonism of Methamphetamine; conditions: sign printed with oral ED50; rat, oral 5, 20 and 80 mg./kg.
Procedure: Male Long-Evans black hooded rats, weighing between 100 and 150 grams, were administered the test drugs at oral doses of 5, 20 and 80 mg./kg. 1 hour prior to the administration of Methamphetamine at an intraperitoneal dose of 1 mg./kg. Three animals were tested at each dose level. The rats were placed in individual activity chambers equipped with photocells (Lehigh Valley, Model 1497). Antagonism of Methamphetamine induced hyperactivity was recorded as digital counts received from the photocells at one and two hour intervals. Placebo controls received a volume dose of the 0.5 carboxymethylcellulose vehicle. The data were evaluated by a one-way analysis of variance computer program. ED50 's were calculated by the method of Litchfield and Wilcoxon (J. Pharmacol. Exp. Therap.; 96:99, 1949).
In the results, a (+) indicates a potentiation of Methamphetamine and a (-) is antagonism of Methamphetamine.

Structure (SMILES)	HVA Ratio [1]	direction of effect on Methamphetamine [2]
OCCOCCN1CCN(C2=Nc3cc(Cl)ccc3Nc3ccccc32)CC1 [VI, 8-Chloro-11-[4-2-(2-hydroxyethoxy)ethyl-1-piperazinyl]-5H-dibenzo[b,e][1,4]diazepine]	2.8	(-)
OCCOCCOCCN1CCN(C2=Nc3cc(Cl)ccc3Nc3ccccc32)CC1 [VIII, 8-Chloro-11-[4-2-(2-hydroxyethoxyethoxy)-ethylpiperazinyl]-5H-dibenzo[b,e][1,4]diazepine]	1.4	(-)
CCCCCCCCCCCCCCCC(=O)OCCOCCN1CCN(C2=Nc3cc(Cl)ccc3N(C(=O)CCCCCCCCCCCCCCC)c3ccccc32)CC1 [X, 8-Chloro-11-[4-2-(2-palmitoyloxyethoxy)-ethylpiperazinyl]-5-palmitoyl-dibenzo[b,e][1,4]diazepine]	–	(-)
COCCOCCN1CCN(C2=Nc3cc(Cl)ccc3Nc3ccccc32)CC1 [VII, 8-Chloro-11[4-2-(2-methoxyethoxy)-ethylpiperazine]-5H-dibenzo[b,e][1,4]diazepine]	3.1	(-)
CCCCCCCCCCCCCCCC(=O)OCCOCCN1CCN(C2=Nc3cc(Cl)ccc3Nc3ccccc32)CC1 [IX, 8-Chloro-11-[4-2-(2-palmitoyloxyethoxy)-ethylpiperazinyl]-5H-dibenzo[b,e][1,4]diazepine]	1.0	(-)
